The source of these data is US9181263B2, “Inhibitors of bruton's tyrosine kinase” (PHARMACYCLICS, INC., priority 2007, dated 2015).

pIC50: −log10 of the molar value. “Also recorded” adds a separate entry of the source.

Data set [1] in a line: Glutathione binding assay. Format: physicochemical. The settings on record: 5 mM glutathione, 10 μM inhibitor, potassium phosphate buffer, room temperature, HPLC. The protocol:
A calculated value (e.g (1/Btk IC50)/Glutathione conjugation rate) as shown in the Table 2) is used to compare compounds for their ratio between potency at inhibiting their target and their non-specific binding to other SH groups, such as those in glutathione. […] Calculated ratios such as these are used to quantitatively compare different compounds and select compounds for further study.
For the glutathione binding assays, 5 mM glutathione, 10 μM Btk inhibitor in DMSO (10 μL) and 6 equivalents of N′N′ Diisopropyl ethyl amine were combined in 1 mL potassium phosphate buffer. The mixture was incubated for 0, 15, 60 minutes at room temperature and the reaction was stopped with 10 equivalents of formic acid. 50 μL of each reaction mixture was injected on HPLC (Mobil Phase A: 0.2% formic acid in water, Mobile Phase B: 0.2% formic acid in acetonitrile, HPLC Column: Metasil Basic 3μ, 150×4.6 mm, 10% B, Gradient: 10% to 90% B, Detection: UV/Vis […]). Rate of reaction was reported as nmole GSH conjugate conversion per minute from the normalized ratio for area under the curve from HPLC chromatograms for both GSH conjugate and the parent.

In data set [2] the test system is Ramos cells. The data set is described as follows: Cell proliferation, Ramos cell line. Format: cell-based. Here is the method: (§1) After 72 hours, cell number was measured using Alamar Blue using manufacturer's protocol. A dilution series of untreated cells was run in parallel to verify that the Alamar Blue assay reliably reflected cell number and that growth conditions were not limiting. […] GI50 values were confirmed in two or more separate experiments for each cell line.
(§2) To identify biomarkers that correlate with response to Compound 1, phosphorylation events in the BCR signal transduction pathway were investigated.

In data set [3] the test system is Btk expressing B cell lymphoma cell lines. The data set is described as follows: Panel of nine Btk expressing B cell lymphoma cell lines, sensitivity vs basal pERK. It is filed as cell-based. Here is the method:
as §1
A panel of nine Btk expressing B cell lymphoma cell lines was screened for basal pERK levels.

The test system of data set [4] is DOHH2 xenograft. Nature of the data set: DOHH2 lymphoma xenograft model. Format: in vivo. The settings on record: DOHH2 xenograft in SCID mice, dosed orally.
Data set [5] deals with DLCL2 xenograft. The data set is described as follows: DLCL2 lymphoma xenograft model. Format: in vivo. The settings on record: DLCL2 xenograft in SCID mice, dosed orally.
Data set [6] deals with collagen-induced arthritis (paw inflammation). Nature of the data set: Collagen-induced arthritis in the mouse. Format: in vivo, male DBA/1OlaHsd mice. The protocol:
[…]. Compound for vehicle was dosed orally once per day starting at day 1. Dexamethasone was included as a positive control. Paw inflammation was scored from 0-5 and averaged across all paws from all animals for each group in the study.
. After paw inflammation was established, animals were randomized and Compound for vehicle was dosed orally once per day starting at day 1. Paw inflammation was scored from 0-5 and averaged across all paws from all animals for each group in the study. […] Dexamethasone was included as a positive control.

The test system of data set [7] is MRL/lpr model of lupus (proteinuria). Nature of the data set: Mouse MRL/lpr model of lupus. Format: in vivo, MRL/lpr mice. The text has this:
FIG. 3 presents an illustrative line graph showing inhibition of disease progression in a mouse MRL/lpr model of lupus.

Data set [8] deals with mast cell degranulation. Nature of the data set: Mouse passive cutaneous anaphylaxis model. It is filed as in vivo, mice. To be noted: single oral dose, increasing doses, 1 hour before DNP-BSA challenge. The protocol: FIG. 4 presents an illustrative bar graph showing inhibition of mast cell degranulation in a mouse passive cutaneous anaphylaxis model. […] After one hour, animals were challenged with an intravenous injection of DNP-BSA and Evans Blue dye and the area of extravasation was measured.
Mice were sensitized with an intradermal injection of monoclonal anti-DNP-IgE in the back. […] After one hour, animals were challenged with an intravenous injection of DNP-BSA and Evans Blue dye. Mast cell degranulation leads to vascular permeability and the distribution of the dye into the skin of the back. The area of extravasation after 1 hour is measured.

Data set [9] can be described thus: Plasma concentrations after oral dosing of rats. Format: in vivo, male jugular vein cannulated rats. The settings on record: rat plasma, single 8 mg/kg dose by oral gavage, dosed in combination. Here is the method:
Blood samples were collected at 0.0833 (5 minutes), 0.333 (20 minutes), 1, 3, 6, 9, and 24 hours post-dosing from orally dosed rats.
Male jugular vein cannulated rats were administered a single dose of all test compounds at 8 mg/kg each, in combination by oral gavage. Dose volumes were adjusted based on body weight data collected immediately prior to dosing. Blood samples were collected at 0.0833 (5 minutes), 0.333 (20 minutes), 1, 3, 6, 9, and 24 hours post-dosing from orally dosed rats. The samples were collected into plasma separator Microtainer tubes with anticoagulant (lithium heparin). Plasma samples were prepared by centrifugation (5 min at 5000×g), and at least 100 μL were transferred to storage tubes and stored frozen at −80° C. Plasma samples were thawed and 75 uL aliquots were transferred to centrifuge tubes to which 10 μL aliquots of internal standard solution (1 μg/mL) were added. The samples were not diluted with blank plasma prior to further processing. Soluble proteins were precipitated by the addition of 200 μL of acetonitrile, followed by centrifugation (20 min at 16,000×g). The samples were evaporated to dryness and reconstituted in 200 μL of water containing 0.2% formic acid and 10% methanol. All samples were loaded onto an autosampler maintained at 6° C. and evaluated for concentrations of test compounds using LC-MS/MS.

Data set [10] relates to normal human B cells. Nature of the data set: B cell activation after brief exposure and washout (CD69). Format: cell-based. The settings on record: 1 hour exposure, washed three times, then IgM F(ab')2 stimulation for 18 hours. The protocol:
B cells were purified from blood from healthy donors by negative selecting using the RosetteSep Human B cell enrichment cocktail. […] After incubation for 1 hour at 37° C., cells were washed three times using an 8-fold dilution in growth media for each wash. Cells were then stimulated with IgM F(ab′)2 for 18 hours at 37° C., stained with anti-CD69-PE antibody and analyzed by flow cytometry.
B cells were purified from blood from healthy donors by negative selecting using the RosetteSep Human B cell enrichment cocktail. […] After incubation for 1 hour at 37° C., cells were washed three times using an 8-fold dilution in growth media for each wash. Cells were then stimulated with 10 ug/ml of IgM F(ab′)2 for 18 hours at 37° C. Cells were then stained with anti-CD69-PE antibody and analyzed by flow cytometry using standard conditions.

The subject of data set [11] is pERK / BCR signal transduction pathway in DOHH2 cells. Nature of the data set: BCR pathway phosphorylation (phospho-specific antibodies) in DOHH2. The settings on record: DOHH2, anti-IgM or anti-IgG cross-linking. It is filed as cell-based.
Source text: as §2
(§3) However, when we examined basal phosphorylation levels, we found higher basal phosphorylation in DOHH2 compared to Ramos, with phospho-ERK in particular indicating higher levels of basal or tonic signaling in DOHH2.

Data set [12] deals with pERK / BCR signal transduction pathway in Ramos cells. The data set is described as follows: BCR pathway phosphorylation (phospho-specific antibodies) in Ramos. The settings on record: Ramos, anti-IgM or anti-IgG cross-linking. Format: cell-based.
Source text: as §2, §3

Data set [13] concerns lymphoma cell lines. The data set is described as follows: In vitro cell proliferation, variety of lymphoma cell lines. Format: cell-based. The settings on record: 72 hours. The protocol: as §1
The target in data set [14] is BTK (Homo sapiens (Human), UniProt Q06187). The data set is described as follows: HotSpot kinase assay, BTK. Format: biochemical. To be noted: purified enzyme, 33P-ATP, 1 uM ATP.
Data set [15] addresses EGFR (Homo sapiens (Human), UniProt P00533). Nature of the data set: HotSpot kinase assay, EGFR. Format: biochemical. To be noted: purified enzyme, 33P-ATP, 1 uM ATP; printed EFGR in Table 1.
In data set [16] the test system is lymphoma cell line DOHH2. The data set is described as follows: DOHH2 cell proliferation assay (Alamar Blue). It is filed as cell-based. To be noted: Homo sapiens, DOHH-2, 72 hours. The protocol:
as §1
Analogs are generated that are Btk inhibitors and that are cytotoxic to the lymphoma cell line DOHH2. For the DOHH2 cell proliferation assay, cells were seeded in 96-well plates in standard growth media (RPMI+10% fetal calf serum) and compounds were added in a 9-point dilution series ranging from 10 uM to 0.04 uM with DMSO at 0.1% final concentration in all wells. After 72 hours, cell number was measured using Alamar Blue using manufacturer's protocol. A dilution series of untreated cells was run in parallel to verify that the Alamar Blue assay reliably reflected cell number and that growth conditions were not limiting.

EGFR, sequence (P00533 25-1210): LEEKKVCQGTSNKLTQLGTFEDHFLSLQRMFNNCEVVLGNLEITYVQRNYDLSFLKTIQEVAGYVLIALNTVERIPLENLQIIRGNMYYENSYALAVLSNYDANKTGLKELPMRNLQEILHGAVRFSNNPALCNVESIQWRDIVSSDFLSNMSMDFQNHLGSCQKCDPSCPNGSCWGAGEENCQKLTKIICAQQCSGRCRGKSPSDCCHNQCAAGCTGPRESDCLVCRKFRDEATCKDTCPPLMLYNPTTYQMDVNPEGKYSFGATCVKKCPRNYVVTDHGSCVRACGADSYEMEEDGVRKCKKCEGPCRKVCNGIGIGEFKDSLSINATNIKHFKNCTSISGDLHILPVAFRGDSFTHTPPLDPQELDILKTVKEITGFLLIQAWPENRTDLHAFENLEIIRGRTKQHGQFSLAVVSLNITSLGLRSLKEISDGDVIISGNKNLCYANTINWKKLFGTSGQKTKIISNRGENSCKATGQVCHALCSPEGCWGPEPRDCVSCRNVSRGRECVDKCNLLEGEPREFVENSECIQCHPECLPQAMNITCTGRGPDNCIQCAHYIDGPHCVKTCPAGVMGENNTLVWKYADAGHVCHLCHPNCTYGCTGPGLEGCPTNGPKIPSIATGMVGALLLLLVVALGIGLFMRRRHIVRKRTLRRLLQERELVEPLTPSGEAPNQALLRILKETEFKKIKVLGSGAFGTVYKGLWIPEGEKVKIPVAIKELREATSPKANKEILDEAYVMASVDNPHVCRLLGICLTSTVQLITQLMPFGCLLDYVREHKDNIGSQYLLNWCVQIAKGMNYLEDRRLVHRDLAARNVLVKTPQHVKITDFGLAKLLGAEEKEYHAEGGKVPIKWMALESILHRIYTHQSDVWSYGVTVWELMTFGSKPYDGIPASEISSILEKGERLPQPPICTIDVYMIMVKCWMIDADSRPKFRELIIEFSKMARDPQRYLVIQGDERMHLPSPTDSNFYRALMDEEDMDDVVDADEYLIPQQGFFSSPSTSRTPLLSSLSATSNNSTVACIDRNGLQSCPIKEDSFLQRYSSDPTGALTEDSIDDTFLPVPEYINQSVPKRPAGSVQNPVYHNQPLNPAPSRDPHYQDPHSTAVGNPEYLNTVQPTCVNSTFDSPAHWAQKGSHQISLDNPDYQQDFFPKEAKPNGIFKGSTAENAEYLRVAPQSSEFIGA
BTK, sequence (Q06187 whole entry): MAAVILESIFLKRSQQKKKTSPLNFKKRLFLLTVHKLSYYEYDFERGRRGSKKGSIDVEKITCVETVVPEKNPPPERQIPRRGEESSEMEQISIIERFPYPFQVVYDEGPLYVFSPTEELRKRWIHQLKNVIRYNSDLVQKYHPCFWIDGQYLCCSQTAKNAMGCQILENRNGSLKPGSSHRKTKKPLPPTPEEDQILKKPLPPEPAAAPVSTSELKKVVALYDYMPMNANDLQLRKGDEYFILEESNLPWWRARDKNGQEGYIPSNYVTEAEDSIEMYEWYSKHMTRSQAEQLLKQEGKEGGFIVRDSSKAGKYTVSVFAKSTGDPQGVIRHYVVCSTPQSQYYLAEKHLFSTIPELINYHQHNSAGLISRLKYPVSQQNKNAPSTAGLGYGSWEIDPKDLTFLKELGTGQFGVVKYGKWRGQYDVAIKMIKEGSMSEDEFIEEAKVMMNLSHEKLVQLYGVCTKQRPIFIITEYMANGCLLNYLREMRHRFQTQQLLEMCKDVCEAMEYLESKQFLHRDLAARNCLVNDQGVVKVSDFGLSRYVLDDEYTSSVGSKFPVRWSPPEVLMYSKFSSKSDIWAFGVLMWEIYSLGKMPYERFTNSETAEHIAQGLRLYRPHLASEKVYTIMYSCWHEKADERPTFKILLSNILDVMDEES

Consider `C=CC(=O)N1CCC[C@@H](n2nc(-c3ccc(Oc4ccccc4)cc3)c3c(N)ncnc32)C1` [Compound 1], for which the “Glutathione Conj Rate” value in data set [1] is reported as 0.398 nmol/min. Besides, in data set [2], the “sensitivity of cell line to compound” value is recorded as “resistant”. The molecule further showed a concentration for 50% growth inhibition (GI50) in [3] (5 of the seven lines with significantly higher basal pERK) of less than 1300 nM. Besides, the “sensitivity of cell lines to compound” value in [3] (the two cell lines with low pERK levels) was “resistant”. Also, the tumor growth result in [4] and in data set [5] was “inhibition of tumor growth; also recorded: inhibits tumor growth” throughout. Besides, the paw inflammation entry in data set [6] (3.125 mg/kg orally once per day, to day 11) is “significantly reduced the increase in paw inflammation”; in [6] (12.5 mg/kg intermittent dosing: days 1, 2, 3 or days 9, 10, 11 of an 11-day period), “reduced the increase in paw inflammation”; in [6] (12.5 mg/kg orally once per day, to day 11) it was “regressed inflammation”; in data set [6] (50 mg/kg orally once per day, to day 11), “regressed inflammation”. In addition, the “proteinuria (urine protein levels)” value in [7] (3.125 mg/kg orally once per day until 20 weeks of age), in data set [7] (12.5 mg/kg orally once per day until 20 weeks of age) and in data set [7] (50 mg/kg orally once per day until 20 weeks of age) was “significantly reduced proteinuria” in each case. Besides, the “amount of Evans Blue release (area of extravasation)” value in data set [8] was “significantly decrease the amount of Evans Blue release”. Also, the in vivo half-life result in [9] is given as “short half-life in vivo”. The “B cell activation (CD69)” value in [10] is listed as “sufficient to inhibit B cell activation”. Further, the “BCR-stimulus induced phosphorylation events” value in data set [11] and in data set [12] was “inhibits most BCR-stimulus induced phosphorylation events” throughout. The “lymphoma tumor cell growth” value in data set [13] is given as “inhibits lymphoma tumor cell growth”.
On to `CN(C/C=C/C(=O)N1CCCC(n2nc(-c3ccc(Oc4ccccc4)cc3)c3c(N)ncnc32)C1)CCO` (centres unmarked) [Compound 3], for which the figures for the pIC50 in [14] and in [15] were 8.68 and 7.13, respectively.
As to `CN(C)C/C=C/C(=O)N1CCC[C@@H]1Cn1nc(-c2ccc(Oc3ccccc3)cc2)c2c(N)ncnc21` [Compound 11, (E)-1-((R)-2-((4-amino-3-(4-phenoxyphenyl)-1H-pyrazolo[3,4-d]pyrimidin-1-yl)methyl)pyrolidin-1-yl)-4-(dimethylamino)but-2-en-1-one], the “Glutathione Conj Rate” value in [1] amounted to 0.004525 nmol/min. In [16], this molecule displayed a GI50 of more than 10 µM.
